In US9320271B2, “Microbial composition” (Rohm and Haas Company, priority 2011, dated 2016):
Values joined by “and” are separate entries in the source; they are usually repeats but may differ in a detail not shown here. Equal entries are not always repeated.

Experiments:
[1] = system: Escherichia coli (E. coli—ATCC #10536); experiment: Synergy test: high resolution MBC microtiter plate assay, phosphate buffer containing 35% dipropylene glycol, 15 seconds contact; type: cell-based; details: E. coli 10536; for SI (Synergy Index): at Qa and Qb, less than one = synergy; for MBC of the component acting alone (QA / QB; Qa or Qb where the other component is 0): complete kill in 15 seconds
Description: The concentrations and ratios may also vary under different test conditions or with different test methods.
One measure of synergy is the industrially accepted method described by Kull, F. C.; Eisman, P. C.; Sylwestrowicz, H. D, and Mayer, R. L., in Applied Microbiology 9:538-541 (1961), using the ratio determined by the formula: […]=Synergy Index (“SI”) wherein; QA=concentration of compound A (first component) in percent, acting alone, which produced an end point (MBC of Compound A). Qa=concentration of compound A in percent, in the mixture, which produced an end point. QB=concentration of compound B (second component) in percent, acting alone, which, produced an end point (MBC of Compound B). Qb=concentration of compound B in percent, in the mixture, which produced an end point.
When the sum of Qa/QA and Qb/QB is greater than one, antagonism is indicated. […] The lower the SI, the greater is the synergy shown by that particular mixture. The minimum biocidal concentration (MBC) of a microbicide is the lowest concentration tested under a specific set of conditions that provides complete kill of the tested microorganisms.
Synergy tests were conducted using standard microliter plate assays with phosphate buffer containing 35% dipropylene glycol (DPG). In this method, a wide range of combinations of chemicals was tested by conducting high resolution MBC assays of Component (A) in the presence of various concentrations of Component (B). High resolution MBCs were determined by adding varying amounts of microbicide to one column of a microliter plate and doing subsequent […] dilutions using an automated liquid handling, system to obtain a series of closely spaced endpoints. The MBC plate was inoculated one column at a time with the test microorganism. An aliquot of the inoculated well was transferred at 15 seconds to a plate containing a neutralizing agent (D/E Neutralizing Broth), mixed and held for 5 minutes before being transferred to a growth plate containing trypticase soy broth (TSB). The TSB plate was incubated at 37° C. and read for the presence/absence of growth at 24 hours. The lowest level tested that provided complete kill (as evidenced by no growth in the microtitre plate) of the test organisms in 15 seconds is the minimum biocidal concentration (MBC).
The synergy of the combinations of the present invention was determined against a bacterium, Escherichia coli (E. coli—ATCC #10536), at a concentration of approximately 1×10^8 it bacteria per mL. This microorganism is representative of natural contaminants in many consumer and industrial applications.

[2] = system: Escherichia coli (E. coli—ATCC #10536); experiment: Automated assessment of efficacy in surfactant base (2.85% sodium cocoyl glycinate and 1.85% sodium lauroamphoacetate, pH 10.0), 15 seconds exposure; type: cell-based; details: for MBC (minimum biocidal concentration): in 2.85% sodium cocoyl glycinate + 1.85% sodium lauroamphoacetate solution at pH 10, E. coli; for No. of replicates showing growth (out of 4) / Δ OD 450 nm = OD450 (time = 16 hours) − OD450 (time zero), Mean / Δ OD 590 nm OD590 (time = 16 hours) − OD590 (time zero), Mean: alone, model surfactant solution
Method: Test Methodology for Automated Assessment of Efficacy in Surfactant Base Microbiocidal Activity of Actives as Per the Invention in a Model Surfactant Medium Test Methodology for Automated Assessment of Efficacy in Surfactant Base In these examples, the efficacy of combinations of actives were tested in a surfactant cleansing formulation comprising 2.85% sodium cocoyl glycinate and 1.85% sodium lauroamphoacetate. This corresponds to a 50% in use dilution with water of a neat formulation containing 5.7% cocoyl glycinate and […] % sodium, lauroamphoacetate during hand washing. Solutions were prepared such that the concentrations of the surfactant components and test actives were 1.1× the final desired concentration in order to allow for dilution with the bacterial inoculum in the test. The solutions were manually adjusted to pH 10.0 by dropwise addition of sodium hydroxide solution, as measured with a pH meter at ambient temperature. The efficacy of the combinations of the present invention was determined against Escherichia coli (E. coli—ATCC #10536), at a concentration of approximately 1×10^8 bacteria per mL. Tests were conducted using standard microtiter plate assays using an automated liquid handling system. 270 μl of the surfactant test solution was pipetted into each well of the microtitre plate and 30 μl of the bacterial suspension was then added. Alter exactly 15 seconds of bacterial exposure, a 30 μl volume of bacterial cells was withdrawn and transferred to 270 μl of D/E quench solution. After 5 minutes in the D/E quench, the optical density (OD) was measured for each plate in turn at two specific wavelengths (450 nm and 590 nm). These provide a dual check of antimicrobial activity, as the OD450 reading is specific for the yellow colour of D/E quench when bacterial growth is observed, whereas OD590 is specific for the initial purple colour of the D/E quench which is retained if no bacterial growth is observed. After the time zero OD measurements, plates were then incubated at 37° C. overnight (16 hours) before repeating the OD measurements. Delta OD values were calculated by subtracting […]. Bacterial growth is observed as an increase in OD450 and a decrease in ΔOD590. To identify antibacterially efficacious systems (those preventing appreciable bacterial growth after incubation), the following threshold changes in OD readings have been adopted: if (1). OD450 increases by less than 0.2 absorbance unit on incubation and (2). OD590 decreases by less than 0.35 unit on incubation. Conversely, where OD450 increases by more than 0.2 AU and OD590 decreases by more than 0.35 unit after incubation, corresponding to a colour shift from purple to yellow, the test system allows bacterial growth and is not deemed efficacious. Four replicate measurements in the same plate have been made for each test system. The number of replicate wells showing either bacterial growth or no growth is also readily assessed by eye by following the colour change. Dose responses for individual components and binary mixtures of actives at a fixed concentration ratio were generated by sequential dilution of liquors with further surfactant solution to obtain a series of endpoints. […] In some selected cases, the combinations were also tested at the weight ratio 1:1.

## CC1=CC(C)C(CO)C(C)C1 (centres unmarked) [2,4,6-trimethyl-3-cyclohexene-1-methanol]
[1]
  SI (Synergy Index): 1.00
  MBC of the component acting alone (QA / QB; Qa or Qb where the other component is 0): 0.6 weight % and 1 weight % and 0.8 weight % and 0.3 weight %
[2]
  MBC (minimum biocidal concentration): 0.4 % w/v

## CC1=CCC(C(C)CO)CC1 (centres unmarked) [2-(4-methylcyclohex-3-enyl)propan-1-ol]
[1]
  SI (Synergy Index): 1.00
  MBC of the component acting alone (QA / QB; Qa or Qb where the other component is 0): 0.3 weight % and 0.25 weight %
[1]; listed as 2-(4-methylcylohex-3-enyl)propan-1-ol
  MBC of the component acting alone (QA / QB; Qa or Qb where the other component is 0): 0.25 weight %

## Oc1ccccc1C1CCCC1 [2-cyclopentylphenol]
[1]
  SI (Synergy Index): 1.00
  MBC of the component acting alone (QA / QB; Qa or Qb where the other component is 0): 0.3 weight % and 0.5 weight %
[2]; 0.1% w/v
  No. of replicates showing growth (out of 4): 4
  Δ OD 450 nm = OD450 (time = 16 hours) − OD450 (time zero), Mean: −0.57
  Δ OD 590 nm OD590 (time = 16 hours) − OD590 (time zero), Mean: 0.56
[2]; 0.2% w/v
  No. of replicates showing growth (out of 4): 4
  Δ OD 450 nm = OD450 (time = 16 hours) − OD450 (time zero), Mean: −0.52
  Δ OD 590 nm OD590 (time = 16 hours) − OD590 (time zero), Mean: 0.61
[2]; […] w/v
  No. of replicates showing growth (out of 4): 4
  Δ OD 450 nm = OD450 (time = 16 hours) − OD450 (time zero), Mean: −0.56
  Δ OD 590 nm OD590 (time = 16 hours) − OD590 (time zero), Mean: 0.54
[2]
  MBC (minimum biocidal concentration): >0.2 % w/v

## Oc1ccccc1Cc1ccccc1 [2-hydroxydiphenylmethane]
[1]
  SI (Synergy Index): 1.00
  MBC of the component acting alone (QA / QB; Qa or Qb where the other component is 0): 0.8 weight % and 0.5 weight % and 0.6 weight %
[2]; 0.1% w/v
  No. of replicates showing growth (out of 4): 4
  Δ OD 450 nm = OD450 (time = 16 hours) − OD450 (time zero), Mean: −0.51
  Δ OD 590 nm OD590 (time = 16 hours) − OD590 (time zero), Mean: 0.62
[2]; 0.2% w/v
  No. of replicates showing growth (out of 4): 4
  Δ OD 450 nm = OD450 (time = 16 hours) − OD450 (time zero), Mean: −0.51
  Δ OD 590 nm OD590 (time = 16 hours) − OD590 (time zero), Mean: 0.63
[2]; […] w/v
  No. of replicates showing growth (out of 4): 4
  Δ OD 450 nm = OD450 (time = 16 hours) − OD450 (time zero), Mean: −0.49
  Δ OD 590 nm OD590 (time = 16 hours) − OD590 (time zero), Mean: 0.64
[2]
  MBC (minimum biocidal concentration): >0.2 % w/v

## Cc1cc(O)c(C(C)C)cc1Cl [4-chloro-2-isopropyl-5-methylphenol, reference compound]
[2]
  MBC (minimum biocidal concentration): >0.2 % w/v

## Cc1cc(O)cc(C)c1Cl [4-chloro-3,5-dimethylphenol]
[1]
  SI (Synergy Index): 1.00
  MBC of the component acting alone (QA / QB; Qa or Qb where the other component is 0): 0.6 weight % and 1.0 weight % and 0.5 weight %
[2]; 0.1% w/v
  No. of replicates showing growth (out of 4): 4
  Δ OD 450 nm = OD450 (time = 16 hours) − OD450 (time zero), Mean: −0.49
  Δ OD 590 nm OD590 (time = 16 hours) − OD590 (time zero), Mean: 0.63
[2]; 0.2% w/v
  No. of replicates showing growth (out of 4): 4
  Δ OD 450 nm = OD450 (time = 16 hours) − OD450 (time zero), Mean: −0.50
  Δ OD 590 nm OD590 (time = 16 hours) − OD590 (time zero), Mean: 0.62
[2]; […] w/v
  No. of replicates showing growth (out of 4): 4
  Δ OD 450 nm = OD450 (time = 16 hours) − OD450 (time zero), Mean: −0.47
  Δ OD 590 nm OD590 (time = 16 hours) − OD590 (time zero), Mean: 0.63
[2]
  MBC (minimum biocidal concentration): >0.2 % w/v

## C=C(C)[C@@H]1CC=C(CO)CC1 [(S)-(−) perillyl alcohol]
[2]; 0.2% w/v
  No. of replicates showing growth (out of 4): 4
  Δ OD 450 nm = OD450 (time = 16 hours) − OD450 (time zero), Mean: −1.49
  Δ OD 590 nm OD590 (time = 16 hours) − OD590 (time zero), Mean: 0.29
[2]; 0.5% w/v
  No. of replicates showing growth (out of 4): 0
  Δ OD 450 nm = OD450 (time = 16 hours) − OD450 (time zero), Mean: −0.04
  Δ OD 590 nm OD590 (time = 16 hours) − OD590 (time zero), Mean: 0.07

## CC1=CC(C)C(CO)C(C)C1 (centres unmarked) [Isocyclo-Geraniol]
[2]; 0.2% w/v
  No. of replicates showing growth (out of 4): 4
  Δ OD 450 nm = OD450 (time = 16 hours) − OD450 (time zero), Mean: −1.50
  Δ OD 590 nm OD590 (time = 16 hours) − OD590 (time zero), Mean: 0.29
[2]; 0.4% w/v
  No. of replicates showing growth (out of 4): 0
  Δ OD 450 nm = OD450 (time = 16 hours) − OD450 (time zero), Mean: −0.06
  Δ OD 590 nm OD590 (time = 16 hours) − OD590 (time zero), Mean: 0.09
[2]; […] w/v
  No. of replicates showing growth (out of 4): 4
